Laboratory results: US10414765B2, “Substituted perhydropyrrolo[3,4-c]pyrrole derivatives and the use of same” (BAYER PHARMA AKTIENGESELLSCHAFT, priority 2015, dated 2019)

Tests used:
Assay type in all cases: cell-based
[1] = molecular target: T1, human TASK-1 (Homo sapiens (Human), UniProt O14649); experiment: Inhibition of recombinant TASK-1 in stably transfected CHO cells (voltage-sensitive dye, 40 mM KCl depolarization); details: 40 mM potassium chloride
Procedure: (§1) B-2. Inhibition of Recombinant TASK-1 and TASK-3 In Vitro
(§2) The investigations on the inhibition of the recombinant TASK-1 and TASK-3 channels were conducted using stably transfected CHO cells. The compounds according to the invention were tested in this case by application of 40 mM potassium chloride in the presence of a voltage-sensitive dye according to the methods described in detail in the following references [Whiteaker et al., Validation of FLIPR membrane potential dye for high-throughput screening of potassium channel modulators, J. Biomol. Screen. 6 (5), 305-312 (2001); Molecular Devices FLIPR Application Note: Measuring membrane potential using the FLIPR® membrane potential assay kit on Fluorometric Imaging Plate Reader (FLIPR®) systems, http://www.moleculardevices.com/reagents-supplies/assay-kits/ion-channels/flipr-membrane-potential-assay-kits]. The activity of the test substances was determined as their ability to inhibit a depolarization induced in the recombinant cells by 40 mM potassium chloride. The concentration which can block half of this depolarization is referred to as IC50.

[2] = molecular target: T2, human TASK-3 (Homo sapiens (Human), UniProt Q9NPC2); experiment: Inhibition of recombinant TASK-3 in stably transfected CHO cells (voltage-sensitive dye, 40 mM KCl depolarization); details: 40 mM potassium chloride
Procedure: as §1, §2

[3] = molecular target: T2, human TASK-3; experiment: Two-electrode voltage clamp of human TASK-3 channels expressed in Xenopus laevis oocytes
Procedure: (§3) B-1. In Vitro Electrophysiological Analysis of the Human TASK-1 and TASK-3 Channels Via Two-Electrode Voltage Clamp Technique in Xenopus laevis Oocytes
(§4) Xenopus laevis oocytes were selected as described elsewhere by way of illustration [Decher et al., FEBS Lett. 492, 84-89 (2001)]. Subsequently, the oocytes were injected with 0.5-5 ng of a cRNA solution coding for TASK-1 or TASK-3. For the electrophysiological analysis of the channel proteins expressed in the oocytes, the two-electrode voltage clamp technique [Stiihmer, Methods Enzymol. 207, 319-339 (1992)] was used. The measurements were conducted as described [Decher et al., FEBS Lett. 492, 84-89 (2001)] at room temperature (21-22° C.) using a Turbo TEC 10CD amplifier (NPI), recorded at 2 kHz and filtered with 0.4 kHz. Substance administration was performed using a gravitation-driven perfusion system. Here, the oocyte is located in a measuring chamber and exposed to the solution stream of 10 ml/min. The level in the measuring chamber is monitored and regulated by sucking off the solution using a peristaltic pump.

[4] = molecular target: T1, human TASK-1; experiment: Two-electrode voltage clamp of human TASK-1 channels expressed in Xenopus laevis oocytes
Procedure: as §3, §4

T1 sequence (O14649 whole entry): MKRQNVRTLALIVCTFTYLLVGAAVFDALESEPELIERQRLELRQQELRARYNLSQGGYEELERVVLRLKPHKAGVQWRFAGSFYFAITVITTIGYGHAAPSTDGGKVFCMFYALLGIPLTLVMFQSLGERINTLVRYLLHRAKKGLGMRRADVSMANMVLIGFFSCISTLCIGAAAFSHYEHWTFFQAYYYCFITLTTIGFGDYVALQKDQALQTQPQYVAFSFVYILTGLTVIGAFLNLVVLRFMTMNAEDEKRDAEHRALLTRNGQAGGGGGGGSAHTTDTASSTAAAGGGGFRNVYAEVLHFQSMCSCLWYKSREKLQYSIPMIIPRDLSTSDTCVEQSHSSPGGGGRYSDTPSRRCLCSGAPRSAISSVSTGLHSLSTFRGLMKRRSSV
T2 sequence (Q9NPC2 whole entry): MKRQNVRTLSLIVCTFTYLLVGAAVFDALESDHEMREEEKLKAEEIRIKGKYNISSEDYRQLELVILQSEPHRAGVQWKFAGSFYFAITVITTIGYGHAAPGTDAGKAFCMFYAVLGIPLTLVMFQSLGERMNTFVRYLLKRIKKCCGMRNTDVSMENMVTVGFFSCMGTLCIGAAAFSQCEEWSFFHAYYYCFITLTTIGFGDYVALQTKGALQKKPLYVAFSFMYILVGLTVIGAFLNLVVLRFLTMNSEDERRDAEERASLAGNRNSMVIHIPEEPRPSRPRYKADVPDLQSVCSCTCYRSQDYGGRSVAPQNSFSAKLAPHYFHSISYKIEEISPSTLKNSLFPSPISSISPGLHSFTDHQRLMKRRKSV

Compound | IC50 [1] | IC50 [2] | other results
CC(C)(C)OC(=O)N1CC2CN(Cc3c(-c4ccc(Cl)cc4)nc4ccccn34)CC2C1 (centres unmarked) [Example 1, tert-butyl 5-{[2-(4-chlorophenyl)imidazo [1,2-a]pyridin-3-yl]methyl}hexahydropyrrolo[3,4-c]pyrrole-2(1H)-carboxylate] | 2.41 µM | 6.1 µM | 
CC(C)(C)OC(=O)N1CC2CN(Cc3c(-c4ccc(Br)cc4)nc4ccccn34)CC2C1 (centres unmarked) [Example 2] | 1.73 µM | 5.4 µM | 
CC(C)c1ccc(-c2nc3ccccn3c2CN2CC3CN(C(=O)OC(C)(C)C)CC3C2)cc1 (centres unmarked) [Example 3] | 2.5 µM | 7.4 µM | 
COc1cccc(C(=O)N2CC3CN(Cc4c(-c5ccc(Cl)cc5)nc5ccccn45)CC3C2)n1 (centres unmarked) [Example 4, [5-{[2-(4-Chlorophenyl)imidazo[1,2-a]pyridin-3-yl]methyl}hexahydropyrrolo[3,4-c]pyrrol-2(1H)-yl](6-methoxypyridin-2-yl)methanone] | 0.947 µM | 2.3 µM | IC50 [3]: 0.256 ± 0.0488 µM; IC50 [4]: 0.0599 ± 0.0162 µM
O=C(C1CCCC1)N1CC2CN(Cc3c(-c4ccc(Br)cc4)nc4ccccn34)CC2C1 (centres unmarked) [Example 5, [5-{[2-(4-Bromophenyl)imidazo[1,2-a]pyridin-3-yl]methyl}hexahydropyrrolo[3,4-c]pyrrol-2(1H)-yl](cyclopentyl)methanone] | 1.13 µM | 1.6 µM | 
O=C(c1ccccc1F)N1CC2CN(Cc3c(-c4ccc(Br)cc4)nc4ccccn34)CC2C1 (centres unmarked) [Example 6] | 0.683 µM | 1.3 µM | 
O=C(c1cc(F)ccc1Cl)N1CC2CN(Cc3c(-c4ccc(Br)cc4)nc4ccccn34)CC2C1 (centres unmarked) [Example 7] | 0.787 µM | 4.3 µM | 
O=C(C1CCCCC1)N1CC2CN(Cc3c(-c4ccc(Br)cc4)nc4ccccn34)CC2C1 (centres unmarked) [Example 8] | 1.36 µM | 0.81 µM | 
O=C(C1CCC1)N1CC2CN(Cc3c(-c4ccc(Br)cc4)nc4ccccn34)CC2C1 (centres unmarked) [Example 9] | 0.749 µM | 0.66 µM | 
COc1ccccc1C(=O)N1CC2CN(Cc3c(-c4ccc(Br)cc4)nc4ccccn34)CC2C1 (centres unmarked) [Example 11] | 1.21 µM | 2.5 µM | 
COc1ccc(F)cc1C(=O)N1CC2CN(Cc3c(-c4ccc(Br)cc4)nc4ccccn34)CC2C1 (centres unmarked) [Example 12] | 1.2 µM | 0.96 µM | 
Cc1ccccc1C(=O)N1CC2CN(Cc3c(-c4ccc(Br)cc4)nc4ccccn34)CC2C1 (centres unmarked) [Example 13] | 0.712 µM | 1.3 µM | 
O=C(c1ccccc1F)N1CC2CN(Cc3c(-c4ccc(Cl)cc4)nc4ccccn34)CC2C1 (centres unmarked) [Example 14] | 1.06 µM | 3.4 µM | 
O=C(c1cc(F)ccc1Cl)N1CC2CN(Cc3c(-c4ccc(Cl)cc4)nc4ccccn34)CC2C1 (centres unmarked) [Example 15] | 1 µM | 2.9 µM | 
O=C(C1CCCCC1)N1CC2CN(Cc3c(-c4ccc(Cl)cc4)nc4ccccn34)CC2C1 (centres unmarked) [Example 16] | 1.94 µM | 1.1 µM | 
COc1ccccc1C(=O)N1CC2CN(Cc3c(-c4ccc(Cl)cc4)nc4ccccn34)CC2C1 (centres unmarked) [Example 18] | 1.68 µM | 4.9 µM | 
COc1ccc(F)cc1C(=O)N1CC2CN(Cc3c(-c4ccc(Cl)cc4)nc4ccccn34)CC2C1 (centres unmarked) [Example 19] | 1.25 µM | 1.5 µM | 
Cc1ccccc1C(=O)N1CC2CN(Cc3c(-c4ccc(Cl)cc4)nc4ccccn34)CC2C1 (centres unmarked) [Example 20] | 1.02 µM | 2.5 µM | 
Cc1ccc(F)cc1C(=O)N1CC2CN(Cc3c(-c4ccc(Cl)cc4)nc4ccccn34)CC2C1 (centres unmarked) [Example 21] | 1.25 µM | 0.23 µM | 
O=C(c1cccc(OC(F)(F)F)c1)N1CC2CN(Cc3c(-c4ccc(Cl)cc4)nc4ccccn34)CC2C1 (centres unmarked) [Example 22] | 1.46 µM | 0.32 µM | 
O=C(c1cccc(C(F)(F)F)c1)N1CC2CN(Cc3c(-c4ccc(Cl)cc4)nc4ccccn34)CC2C1 (centres unmarked) [Example 23] | 0.728 µM | 0.1 µM | 
COc1cccc(C(=O)N2CC3CN(Cc4c(-c5ccc(Br)cc5)nc5ccccn45)CC3C2)n1 (centres unmarked) [Example 24] | 0.33 µM | 0.8 µM | 
CC(C)c1ccc(-c2nc3ccccn3c2CN2CC3CN(C(=O)c4ccccc4F)CC3C2)cc1 (centres unmarked) [Example 26] | 0.22 µM | 0.31 µM | 

Compound | IC50 [1] | IC50 [2] | other results
COc1cccc(C(=O)N2CC3CN(Cc4c(-c5ccc(C(C)C)cc5)nc5ccccn45)CC3C2)c1 (centres unmarked) [Example 27] | 0.17 µM | 0.17 µM | 
CC(C)c1ccc(-c2nc3ccccn3c2CN2CC3CN(C(=O)C4CCCC4)CC3C2)cc1 (centres unmarked) [Example 28] | 0.3 µM | 0.19 µM | 
CN(C(=O)N1CC2CN(Cc3c(-c4ccc(Br)cc4)nc4ccccn34)CC2C1)c1ccccc1 (centres unmarked) [Example 29, 5-{[2-(4-Bromophenyl)imidazo[1,2-a]pyridin-3-yl]methyl}-N-methyl-N-phenylhexahydropyrrolo[3,4-c]pyrrole-2(1H)-carboxamide] | 0.92 µM | 2.1 µM | 
O=C(N1CC2CN(Cc3c(-c4ccc(Br)cc4)nc4ccccn34)CC2C1)N1CCCc2ccccc21 (centres unmarked) [Example 30] | 0.48 µM | 1.2 µM | 
CC(C)COC(=O)N1CC2CN(Cc3c(-c4ccc(Br)cc4)nc4ccccn34)CC2C1 (centres unmarked) [Example 32] | 1.1 µM | 1.2 µM | 
O=C(OCc1ccccc1)N1CC2CN(Cc3c(-c4ccc(Br)cc4)nc4ccccn34)CC2C1 (centres unmarked) [Example 33] | 0.46 µM | 4.4 µM | 
O=C(OC1CCCC1)N1CC2CN(Cc3c(-c4ccc(Br)cc4)nc4ccccn34)CC2C1 (centres unmarked) [Example 34] | 0.5 µM | 3.3 µM | 
CC(C)OC(=O)N1CC2CN(Cc3c(-c4ccc(Br)cc4)nc4ccccn34)CC2C1 (centres unmarked) [Example 35] | 0.7 µM | 1.7 µM | 
O=C(Oc1cccc(C(F)(F)F)c1)N1CC2CN(Cc3c(-c4ccc(Br)cc4)nc4ccccn34)CC2C1 (centres unmarked) [Example 36] | 0.18 µM | 0.45 µM | 
O=C(OCCF)N1CC2CN(Cc3c(-c4ccc(Br)cc4)nc4ccccn34)CC2C1 (centres unmarked) [Example 37] | 0.6 µM | 1.8 µM | 
O=C(Nc1ccc(F)cc1F)N1CC2CN(Cc3c(-c4ccc(Br)cc4)nc4ccccn34)CC2C1 (centres unmarked) [Example 38, 5-{[2-(4-Bromophenyl)imidazo[1,2-a]pyridin-3-yl]methyl}-N-(2,4-difluorophenyl)hexahydropyrrolo[3,4-c]pyrrole-2(1H)-carboxamide] | 1.5 µM | 1.9 µM | 
O=C(Nc1ccccc1F)N1CC2CN(Cc3c(-c4ccc(Br)cc4)nc4ccccn34)CC2C1 (centres unmarked) [Example 41] | 0.58 µM | 2.9 µM | 
O=C(Nc1ccc(Cl)c(C(F)(F)F)c1)N1CC2CN(Cc3c(-c4ccc(Br)cc4)nc4ccccn34)CC2C1 (centres unmarked) [Example 43] | 1.7 µM | 2 µM | 
O=C(Nc1cc(C(F)(F)F)ccc1Cl)N1CC2CN(Cc3c(-c4ccc(Br)cc4)nc4ccccn34)CC2C1 (centres unmarked) [Example 44] | 0.7 µM | 2 µM | 
O=C(NC1CCCCC1)N1CC2CN(Cc3c(-c4ccc(Br)cc4)nc4ccccn34)CC2C1 (centres unmarked) [Example 45] | 2.3 µM | 5.8 µM | 
CC(NC(=O)N1CC2CN(Cc3c(-c4ccc(Br)cc4)nc4ccccn34)CC2C1)c1ccccc1 (centres unmarked) [Example 46] | 0.46 µM | 2.2 µM | 
O=C(Nc1ccc(F)cc1)N1CC2CN(Cc3c(-c4ccc(Br)cc4)nc4ccccn34)CC2C1 (centres unmarked) [Example 47] | 1 µM | 0.24 µM | 
COc1ccc(F)c(C(=O)N2CC3CN(Cc4c(-c5ccc(C(C)C)cc5)nc5ccccn45)CC3C2)n1 (centres unmarked) [Example 48] | 0.078 µM | 0.079 µM | 
COc1ccc(C)c(C(=O)N2CC3CN(Cc4c(-c5ccc(Cl)cc5)nc5ccccn45)CC3C2)n1 (centres unmarked) [Example 49] | 0.094 µM | 0.0046 µM | 
COc1ccc(F)c(C(=O)N2CC3CN(Cc4c(-c5ccc(Cl)cc5)nc5ccccn45)CC3C2)n1 (centres unmarked) [Example 50] | 1.1 µM | 0.11 µM | 
COc1ccc(Cl)c(C(=O)N2CC3CN(Cc4c(-c5ccc(Cl)cc5)nc5ccccn45)CC3C2)n1 (centres unmarked) [Example 51] | 1.4 µM | 0.08 µM | 
O=C(c1ccccc1)N1CC2CN(Cc3c(-c4ccc(Cl)cc4)nc4ccc(-c5ccccc5)cn34)CC2C1 (centres unmarked) [Example 160 in WO 2014/187922, reference compound] | 15 µM | 2.4 µM | 
O=C(c1ccccc1)N1CC2CN(Cc3c(-c4ccc(Cl)cc4)nc4ccc(-c5ccccc5)cn34)CC2C1 (centres unmarked) [comparative compound, reference compound] |  |  | TASK-3 IC50 [3]: inactive; inhibition at 1 µM ([3]; 1 μM): 5.6 ± 1.3%; inhibition at 10 µM ([3]; 10 μM): 8.9 ± 0.9%; IC50 [4]: > 10 µM; inhibition at 1 µM ([4]; 1 μM): 11.4 ± 1.5%; inhibition at 10 µM ([4]; 10 μM): 37.2 ± 7.5%
